# Test results: the NIST ThermoML archive (doi:10.1016/j.jct.2017.11.017)
# Numbers after ± are expanded uncertainties.
# Assay: activity coefficient (dimensionless); of the first substance listed, at infinite dilution; xn = mol fraction of the nth substance listed
# Settings: 101.33 kPa, Liquid, Chromatography, x1 = 0
SMILES,activity coefficient (318.15 K),activity coefficient (328.15 K),activity coefficient (338.15 K),activity coefficient (348.15 K),activity coefficient (358.15 K),activity coefficient (368.15 K),activity coefficient (308.15 K),activity coefficient (298.15 K)
"Cc1ccccc1C [1,2-dimethylbenzene] + C[N+]1(CCCO)CCOCC1.N#C[N-]C#N",18.2 ± 1.2,18.6 ± 1.3,18.8 ± 1.3,19 ± 1.3,19.2 ± 1.3,19.5 ± 1.3,–,–
"Cc1ccccc1C [1,2-dimethylbenzene] + C[n+]1ccn(CCCO)c1.N#CN=C=[N-]",10.9 ± 0.7,11.3 ± 0.8,11.7 ± 0.8,12 ± 0.8,12.5 ± 0.9,12.8 ± 0.9,–,–
"Cc1cccc(C)c1 [1,3-dimethylbenzene] + C[N+]1(CCCO)CCOCC1.N#C[N-]C#N",24.1 ± 1.6,24.1 ± 1.6,24.2 ± 1.7,24.3 ± 1.7,24.3 ± 1.7,24.5 ± 1.7,–,–
"Cc1cccc(C)c1 [1,3-dimethylbenzene] + C[n+]1ccn(CCCO)c1.N#CN=C=[N-]",14.1 ± 1,14.5 ± 1,14.9 ± 1,15.2 ± 1,15.6 ± 1.1,16 ± 1.1,–,–
"Cc1ccc(C)cc1 [1,4-dimethylbenzene] + C[N+]1(CCCO)CCOCC1.N#C[N-]C#N",23.2 ± 1.6,23.3 ± 1.6,23.5 ± 1.6,23.7 ± 1.6,23.8 ± 1.6,24.1 ± 1.6,–,–
"Cc1ccc(C)cc1 [1,4-dimethylbenzene] + C[n+]1ccn(CCCO)c1.N#CN=C=[N-]",13.5 ± 0.9,13.9 ± 1,14.3 ± 1,14.7 ± 1,15.1 ± 1,15.5 ± 1.1,–,–
"C1COCCO1 [1,4-dioxane] + C[N+]1(CCCO)CCOCC1.N#C[N-]C#N",1.94 ± 0.13,2.07 ± 0.14,2.2 ± 0.15,2.33 ± 0.16,2.45 ± 0.17,2.59 ± 0.18,–,–
"C1COCCO1 [1,4-dioxane] + C[n+]1ccn(CCCO)c1.N#CN=C=[N-]",1.73 ± 0.12,1.85 ± 0.12,1.98 ± 0.13,2.09 ± 0.14,2.23 ± 0.15,2.34 ± 0.16,–,–
C=CCCCCCCCC [1-decene] + C[N+]1(CCCO)CCOCC1.N#C[N-]C#N,1460 ± 100,1300 ± 89,1160 ± 80,1050 ± 72,952 ± 66,875 ± 60,1640 ± 110,–
C=CCCCCCCCC [1-decene] + C[n+]1ccn(CCCO)c1.N#CN=C=[N-],764 ± 53,710 ± 49,662 ± 46,627 ± 43,590 ± 41,–,819 ± 56,879 ± 61
C=CCCCCC [1-heptene] + C[N+]1(CCCO)CCOCC1.N#C[N-]C#N,519 ± 36,425 ± 29,359 ± 25,–,–,–,634 ± 44,793 ± 55
C=CCCCCC [1-heptene] + C[n+]1ccn(CCCO)c1.N#CN=C=[N-],176 ± 12,166 ± 11,156 ± 11,146 ± 10,139 ± 10,–,194 ± 13,208 ± 14
C#CCCCCC [1-heptyne] + C[N+]1(CCCO)CCOCC1.N#C[N-]C#N,79.8 ± 5.5,76.7 ± 5.3,74 ± 5.1,72 ± 4.9,69.8 ± 4.8,68.1 ± 4.7,82.9 ± 5.7,–
C#CCCCCC [1-heptyne] + C[n+]1ccn(CCCO)c1.N#CN=C=[N-],34.6 ± 2.4,34.6 ± 2.4,35.1 ± 2.4,35.3 ± 2.4,35.3 ± 2.4,–,34.3 ± 2.3,34 ± 2.3
C#CCCCC [1-hexyne] + C[N+]1(CCCO)CCOCC1.N#C[N-]C#N,42.9 ± 2.9,41.6 ± 2.8,40.2 ± 2.8,39.1 ± 2.7,38 ± 2.6,37 ± 2.5,44.5 ± 3,–
C#CCCCC [1-hexyne] + C[n+]1ccn(CCCO)c1.N#CN=C=[N-],19.6 ± 1.3,20 ± 1.4,20.3 ± 1.4,20.6 ± 1.4,21.4 ± 1.5,–,19.3 ± 1.3,18.8 ± 1.3
CCC[N+](=O)[O-] [1-nitropropane] + C[N+]1(CCCO)CCOCC1.N#C[N-]C#N,3.26 ± 0.22,3.35 ± 0.23,3.47 ± 0.24,3.55 ± 0.24,3.65 ± 0.25,3.74 ± 0.25,–,–
CCC[N+](=O)[O-] [1-nitropropane] + C[n+]1ccn(CCCO)c1.N#CN=C=[N-],2.69 ± 0.18,2.79 ± 0.19,2.89 ± 0.2,2.97 ± 0.2,3.08 ± 0.21,3.17 ± 0.22,–,–
C#CCCCCCC [1-octyne] + C[N+]1(CCCO)CCOCC1.N#C[N-]C#N,145 ± 10,138 ± 9,133 ± 9,128 ± 9,122 ± 8,118 ± 8,151 ± 10,–
C#CCCCCCC [1-octyne] + C[n+]1ccn(CCCO)c1.N#CN=C=[N-],59.8 ± 4.1,59.6 ± 4.1,59.6 ± 4.1,59.4 ± 4.1,59.6 ± 4.1,–,60.2 ± 4.1,60.1 ± 4.1

SMILES,activity coefficient (318.15 K),activity coefficient (328.15 K),activity coefficient (338.15 K),activity coefficient (348.15 K),activity coefficient (358.15 K),activity coefficient (368.15 K),activity coefficient (308.15 K),activity coefficient (298.15 K)
C=CCCC [1-pentene] + C[n+]1ccn(CCCO)c1.N#CN=C=[N-],63.5 ± 4.3,59.3 ± 4.1,–,–,–,–,68.1 ± 4.7,74 ± 5.1
C#CCCC [1-pentyne] + C[N+]1(CCCO)CCOCC1.N#C[N-]C#N,23.6 ± 1.6,23.1 ± 1.6,22.7 ± 1.6,22.4 ± 1.5,22 ± 1.5,21.7 ± 1.5,24.2 ± 1.7,–
C#CCCC [1-pentyne] + C[n+]1ccn(CCCO)c1.N#CN=C=[N-],11.7 ± 0.8,11.8 ± 0.8,12 ± 0.8,12.1 ± 0.8,12.3 ± 0.8,–,11.5 ± 0.8,11.3 ± 0.8
"CC(C)CC(C)(C)C [2,2,4-trimethylpentane] + C[n+]1ccn(CCCO)c1.N#CN=C=[N-]",579 ± 40,509 ± 35,–,–,–,–,662 ± 46,767 ± 53
CCOC(C)(C)C [2-ethoxy-2-methylpropane] + C[N+]1(CCCO)CCOCC1.N#C[N-]C#N,227 ± 16,191 ± 13,–,–,–,–,275 ± 19,339 ± 23
CCOC(C)(C)C [2-ethoxy-2-methylpropane] + C[n+]1ccn(CCCO)c1.N#CN=C=[N-],78.5 ± 5.4,76.2 ± 5.2,74.5 ± 5.1,73.1 ± 5,72.1 ± 4.9,70.5 ± 4.8,–,–
CCC(C)(C)OC [2-methoxy-2-methylbutane] + C[N+]1(CCCO)CCOCC1.N#C[N-]C#N,90.2 ± 6.2,84.1 ± 5.8,78.6 ± 5.4,74 ± 5.1,69.9 ± 4.8,66 ± 5,97.2 ± 6.7,–
CCC(C)(C)OC [2-methoxy-2-methylbutane] + C[n+]1ccn(CCCO)c1.N#CN=C=[N-],36.8 ± 2.5,37 ± 2.5,37.2 ± 2.5,37.5 ± 2.6,37.7 ± 2.6,38.1 ± 2.6,–,–
COC(C)(C)C [2-methoxy-2-methylpropane] + C[N+]1(CCCO)CCOCC1.N#C[N-]C#N,52.4 ± 3.6,49.7 ± 3.4,47.1 ± 3.2,45 ± 3.1,42.9 ± 2.9,41.3 ± 2.8,55.8 ± 3.8,–
COC(C)(C)C [2-methoxy-2-methylpropane] + C[n+]1ccn(CCCO)c1.N#CN=C=[N-],22.8 ± 1.6,23.2 ± 1.6,23.5 ± 1.6,24 ± 1.6,24.3 ± 1.7,24.7 ± 1.7,–,–
CC(C)CO [2-methyl-1-propanol] + C[N+]1(CCCO)CCOCC1.N#C[N-]C#N,4.72 ± 0.32,4.54 ± 0.31,4.38 ± 0.3,4.25 ± 0.29,4.12 ± 0.28,4 ± 0.27,–,–
CC(C)CO [2-methyl-1-propanol] + C[n+]1ccn(CCCO)c1.N#CN=C=[N-],2.79 ± 0.19,2.72 ± 0.19,2.68 ± 0.18,2.64 ± 0.18,2.6 ± 0.18,2.58 ± 0.18,–,–
CC(C)(C)O [2-methylpropan-2-ol] + C[N+]1(CCCO)CCOCC1.N#C[N-]C#N,4.35 ± 0.3,4.27 ± 0.29,4.21 ± 0.29,4.17 ± 0.28,4.14 ± 0.28,4.09 ± 0.28,–,–
CC(C)(C)O [2-methylpropan-2-ol] + C[n+]1ccn(CCCO)c1.N#CN=C=[N-],2.58 ± 0.18,2.63 ± 0.18,2.68 ± 0.18,2.71 ± 0.18,2.74 ± 0.19,2.79 ± 0.19,–,–
CCC(C)CC [3-methylpentane] + C[n+]1ccn(CCCO)c1.N#CN=C=[N-],249 ± 17,221 ± 15,–,–,–,–,284 ± 20,327 ± 22
C=C(C)c1ccccc1 [(1-methylethenyl)benzene] + C[N+]1(CCCO)CCOCC1.N#C[N-]C#N,18.1 ± 1.2,18.9 ± 1.3,19.5 ± 1.3,20.1 ± 1.4,20.7 ± 1.4,21.3 ± 1.5,–,–
C=C(C)c1ccccc1 [(1-methylethenyl)benzene] + C[n+]1ccn(CCCO)c1.N#CN=C=[N-],10.2 ± 0.7,10.9 ± 0.7,11.5 ± 0.8,12.1 ± 0.8,12.7 ± 0.9,13.3 ± 0.9,–,–
CC(C)=O [acetone] + C[N+]1(CCCO)CCOCC1.N#C[N-]C#N,2.24 ± 0.15,2.3 ± 0.16,2.37 ± 0.16,2.45 ± 0.17,2.51 ± 0.17,2.59 ± 0.18,–,–
CC(C)=O [acetone] + C[n+]1ccn(CCCO)c1.N#CN=C=[N-],1.76 ± 0.12,1.83 ± 0.12,1.92 ± 0.13,2 ± 0.14,2.09 ± 0.14,2.19 ± 0.15,–,–
CC#N [acetonitrile] + C[N+]1(CCCO)CCOCC1.N#C[N-]C#N,1.25 ± 0.08,1.29 ± 0.08,1.33 ± 0.09,1.37 ± 0.09,1.4 ± 0.09,1.45 ± 0.1,–,–
